# In patent publication US8883745B2, “C—glycolipids with enhanced Th-1 profile” (New York University, priority 2006, dated 2014):
# Legend:
# Format in all cases: in vivo
# IFN-γ = IFN-γ levels in sera upon i.v. glycolipid administration to BALB/c mice (ELISA); design: IFN-γ levels, test 1 / IFN-γ levels, test 2 / IFN-γ levels, average / IFN-γ levels, Total: unit not given here; conditions: BALB/c
# Protocol: (§1) Five- to six-week-old female C57BL/6 mice and BALB/c mice were purchased from Taconic. Each glycolipid was stored at 1 mg/ml in 100% DMSO. Mice were injected intravenously with 1 μg of each glyocolipid diluted in 200 μL sterile phosphate buffered saline (PBS). At indicated time points, sera were collected from each animal, and concentrations of IFN-γ, IL-4, and IL-12 in the sera were evaluated by enzyme-linked immunosorbent assay (ELISA). Serum concentrations of IFN-γ, IL-4, and IL-12 were evaluated using an ELISA kit (eBioscience, San Diego, Calif.). Briefly, 96 well flat-bottom ELISA plates (NUNC) were coated with capture antibody according to the manufacture's recommendation and incubated overnight at 4° C. The plates were washed with PBS+0.05% Tween 20 (PBS-T), then incubated with manufacturer provided blocking solution for 1 hr at room temperature to block non-specific binding sites. After washing with PBS-T, sera diluted 1:10 was added to the wells and incubated for 2 hrs at room temperature. Plates were then incubated at room temperature for 1 hr with biotintylated detection antibody, washed, incubated with avidin conjugated to horse radish peroxidase (HRP) for 30 min at room temperature, washed, and finally incubated with tetramethylbenzidine substrate solution in the dark for 10 minutes at room temperature. The antibodies, avidin-HRP, and substrate solution were all diluted according to the manufacture's recommendation. Reactions were stopped with 2.0N sulfuric acid and the cytokine concentration in each well was determined by comparing the absorbance at 450 nm in each well to known standards. The levels of Th1- and Th2-type cytokines were determined in two different genetic backgrounds, i.e., in C57BL/6 mice and BALB/c mice. The following compounds were administered: A=compound (A-1 trans-conformer), B=compound (A-2), C=compound (A-3), D=compound (A-4), E=compound (A-5), Z=control (PBS alone), CRONY=α-C-GalCer, KRN=α-GalCer, GCK109 (A-1 trans-conformer), GCK151 (A-1 cis-conformer), GCK152 (A-7). The levels of cytokines were measured at 0, 2, 6, 12, 24, 48, and 72 hours after the compound administration. The levels of Th1-type cytokines IFN-γ and IL-12 are summarized in FIGS. 2A-C and 3A-C, respectively. Table 7 provides IFN-γ/IL-4 and IL-12/IL-4 ratios for various compounds, which can be used as indicators of their ability to selectively stimulate Th1-type immune responses.
# IL-12 = IL-12 levels in sera upon i.v. glycolipid administration to C57BL/6 mice (ELISA); design: IL-12 levels, test 1 / IL-12 levels, test 2 / IL-12 levels, average / IL-12 levels, Total: unit not given here
# Protocol: as §1
# IL-4 [1] = experiment: IL-4 levels in sera upon i.v. glycolipid administration to BALB/c mice (ELISA); design: unit not given here
# Protocol: as §1
# IL-4 [2] = experiment: IL-4 levels in sera upon i.v. glycolipid administration to C57BL/6 mice (ELISA); design: unit not given here
# Protocol: as §1
compound,measurement,setting,value
"CCCCCCCCCCCCCCCCCCCCCCCCCC(=O)N[C@@H](CO[C@H]1O[C@H](CO)[C@H](O)[C@H](O)[C@H]1O)[C@H](O)[C@H](O)CCCCCCCCCCCCCC [KRN, (2S,3S,4R)-1-O-(α-D-galactopyranosyl)-2-(N-hexacosanoylamino)-1,3,4-,-octadecanetriol, reference compound]",IFN-γ/IL-4 (BALB/c),IFN-γ; ratio calculated from Tables 1-6,10
same,"IFN-γ levels, average","IFN-γ; serum, hour 0",27
same,"IFN-γ levels, test 1","IFN-γ; serum, hour 0",27
same,"IFN-γ levels, test 2","IFN-γ; serum, hour 0",27
same,"IFN-γ levels, average","IFN-γ; serum, hour 2",945
same,"IFN-γ levels, test 1","IFN-γ; serum, hour 2",841
same,"IFN-γ levels, test 2","IFN-γ; serum, hour 2",1049
same,"IFN-γ levels, average","IFN-γ; serum, hour 6",4752.5
same,"IFN-γ levels, test 1","IFN-γ; serum, hour 6",4170
same,"IFN-γ levels, test 2","IFN-γ; serum, hour 6",5335
same,"IFN-γ levels, average","IFN-γ; serum, hour 12",8393.5
same,"IFN-γ levels, test 1","IFN-γ; serum, hour 12",7996
same,"IFN-γ levels, test 2","IFN-γ; serum, hour 12",8791
same,"IFN-γ levels, average","IFN-γ; serum, hour 24",6740
same,"IFN-γ levels, test 1","IFN-γ; serum, hour 24",6497
same,"IFN-γ levels, test 2","IFN-γ; serum, hour 24",6983
same,"IFN-γ levels, average","IFN-γ; serum, hour 48",112.5
same,"IFN-γ levels, test 1","IFN-γ; serum, hour 48",86
same,"IFN-γ levels, test 2","IFN-γ; serum, hour 48",139
same,"IFN-γ levels, average","IFN-γ; serum, hour 72",36
same,"IFN-γ levels, test 1","IFN-γ; serum, hour 72",36
same,"IFN-γ levels, test 2","IFN-γ; serum, hour 72",36
same,"IFN-γ levels, Total","IFN-γ; serum, total over hours 0-72",21008
same,IL-12/IL-4 (B6),"IL-12; C57BL/6, ratio calculated from Tables 1-6",0.3
same,"IL-12 levels, average","IL-12; C57BL/6, serum, hour 0",5
same,"IL-12 levels, test 1","IL-12; C57BL/6, serum, hour 0",5
same,"IL-12 levels, test 2","IL-12; C57BL/6, serum, hour 0",5
same,"IL-12 levels, average","IL-12; C57BL/6, serum, hour 2",0
same,"IL-12 levels, test 1","IL-12; C57BL/6, serum, hour 2",0
same,"IL-12 levels, test 2","IL-12; C57BL/6, serum, hour 2",0
same,"IL-12 levels, average","IL-12; C57BL/6, serum, hour 6",1044.5
same,"IL-12 levels, test 1","IL-12; C57BL/6, serum, hour 6",1116
same,"IL-12 levels, test 2","IL-12; C57BL/6, serum, hour 6",973
same,"IL-12 levels, average","IL-12; C57BL/6, serum, hour 12",195
same,"IL-12 levels, test 1","IL-12; C57BL/6, serum, hour 12",174
same,"IL-12 levels, test 2","IL-12; C57BL/6, serum, hour 12",216
same,"IL-12 levels, average","IL-12; C57BL/6, serum, hour 24",0
same,"IL-12 levels, test 1","IL-12; C57BL/6, serum, hour 24",0
same,"IL-12 levels, test 2","IL-12; C57BL/6, serum, hour 24",0
same,"IL-12 levels, average","IL-12; C57BL/6, serum, hour 48",61.5
same,"IL-12 levels, test 1","IL-12; C57BL/6, serum, hour 48",0
same,"IL-12 levels, test 2","IL-12; C57BL/6, serum, hour 48",123
same,"IL-12 levels, average","IL-12; C57BL/6, serum, hour 72",132.5
same,"IL-12 levels, test 1","IL-12; C57BL/6, serum, hour 72",101
same,"IL-12 levels, test 2","IL-12; C57BL/6, serum, hour 72",164
same,"IL-12 levels, Total","IL-12; C57BL/6, serum, total over hours 0-72",1440
same,"IL-4 level, average",IL-4 [1]; hour 0,27
same,"IL-4 level, test 1",IL-4 [1]; hour 0,27
same,"IL-4 level, test 2",IL-4 [1]; hour 0,27
same,"IL-4 level, average",IL-4 [1]; hour 2,1690
same,"IL-4 level, test 1",IL-4 [1]; hour 2,1809
same,"IL-4 level, test 2",IL-4 [1]; hour 2,1571
same,"IL-4 level, average",IL-4 [1]; hour 6,204
same,"IL-4 level, test 1",IL-4 [1]; hour 6,214
same,"IL-4 level, test 2",IL-4 [1]; hour 6,194
same,"IL-4 level, average",IL-4 [1]; hour 12,89
same,"IL-4 level, test 1",IL-4 [1]; hour 12,78
same,"IL-4 level, test 2",IL-4 [1]; hour 12,100
same,"IL-4 level, average",IL-4 [1]; hour 24,50.5
same,"IL-4 level, test 1",IL-4 [1]; hour 24,51
same,"IL-4 level, test 2",IL-4 [1]; hour 24,50
same,"IL-4 level, average",IL-4 [1]; hour 48,44
same,"IL-4 level, test 1",IL-4 [1]; hour 48,46
same,"IL-4 level, test 2",IL-4 [1]; hour 48,42
same,"IL-4 level, average",IL-4 [1]; hour 72,12
same,"IL-4 level, test 1",IL-4 [1]; hour 72,12
same,"IL-4 level, test 2",IL-4 [1]; hour 72,12
same,"IL-4 level, Total",IL-4 [1]; total over hours 0-72,2117
same,"IL-4 level, average",IL-4 [2]; hour 0,46
same,"IL-4 level, test 1",IL-4 [2]; hour 0,46
same,"IL-4 level, test 2",IL-4 [2]; hour 0,46
same,"IL-4 level, average",IL-4 [2]; hour 2,3915
same,"IL-4 level, test 1",IL-4 [2]; hour 2,3584
same,"IL-4 level, test 2",IL-4 [2]; hour 2,4246
same,"IL-4 level, average",IL-4 [2]; hour 6,183
same,"IL-4 level, test 1",IL-4 [2]; hour 6,122
same,"IL-4 level, test 2",IL-4 [2]; hour 6,244
same,"IL-4 level, average",IL-4 [2]; hour 12,102.5
same,"IL-4 level, test 1",IL-4 [2]; hour 12,103
same,"IL-4 level, test 2",IL-4 [2]; hour 12,102
same,"IL-4 level, average",IL-4 [2]; hour 24,18
same,"IL-4 level, test 1",IL-4 [2]; hour 24,20
same,"IL-4 level, test 2",IL-4 [2]; hour 24,16
same,"IL-4 level, average",IL-4 [2]; hour 48,1
same,"IL-4 level, test 1",IL-4 [2]; hour 48,2
same,"IL-4 level, test 2",IL-4 [2]; hour 48,0
same,"IL-4 level, average",IL-4 [2]; hour 72,0.5
same,"IL-4 level, test 1",IL-4 [2]; hour 72,0
same,"IL-4 level, test 2",IL-4 [2]; hour 72,1
same,"IL-4 level, Total",IL-4 [2]; total over hours 0-72,4267
